Results from ChEMBL document CHEMBL3751682, “Synthesis, anti-inflammatory, ulcerogenic and cyclooxygenase activities of indenopyrimidine derivatives” (Bioorg Med Chem Lett, 2016).

Columns and labels:
Rattus norvegicus [1] = assay: Ulcerogenicity in albino Wistar rat assessed as ulcer index at 50 mg/kg, po after 20 hrs; type: toxicity, organism-based; settings: in vivo
[2] = Ratio of IC50 for human COX2 to IC50 for ovine COX1 by prostaglandin biosynthesis assay
Rattus norvegicus [3] = assay: Anti-inflammatory activity in albino Wistar rat assessed as inhibition of carrageenan-induced paw edema at 50 mg/kg, po measured every one hour for 5 hrs; type: functional
Rattus norvegicus [4] = assay: Anti-inflammatory activity in albino Wistar rat assessed as inhibition of carrageenan-induced paw edema at 25 mg/kg, po measured every one hour for 5 hrs; type: functional
Rattus norvegicus [5] = assay: Anti-inflammatory activity in albino Wistar rat assessed as inhibition of carrageenan-induced paw edema at 30 mg/kg, po measured every one hour for 5 hrs; type: functional
Rattus norvegicus [6] = assay: Ulcerogenicity in albino Wistar rat assessed as ulcer index at 100 mg/kg, po after 20 hrs; type: toxicity, organism-based; settings: in vivo

Compound	Ratio IC50 [2]	UI (Rattus norvegicus [1])	inhibition in vivo at 50 mg/kg (Rattus norvegicus [3]) [%]	inhibition in vivo at 25 mg/kg (Rattus norvegicus [4]) [%]	inhibition in vivo at 30 mg/kg (Rattus norvegicus [5]) [%]	UI (Rattus norvegicus [6])
Nc1nc(-c2ccc(Cl)cc2)c2c(n1)-c1ccccc1C2=O	0.7	3	78	76	–	–
Nc1nc(-c2ccccc2)c2c(n1)-c1ccccc1C2=O	–	3	80.7	76.7	–	–
COc1cc(-c2nc(N)nc3c2C(=O)c2ccccc2-3)cc(OC)c1OC	0.69	2.8	78.7	75.3	–	–
Nc1nc(-c2ccc([N+](=O)[O-])cc2)c2c(n1)-c1ccccc1C2=O	–	2.9	81.3	77.3	–	–
Cc1ccc(-c2cc(C(F)(F)F)nn2-c2ccc(S(N)(=O)=O)cc2)cc1	0.04	–	–	–	–	–
O=C(O)Cc1ccccc1Nc1c(Cl)cccc1Cl [DICLOFENAC]	–	–	–	–	85.3	5.7

The next lines start with results.

Ratio IC50 [2]	Compound	UI (Rattus norvegicus [1])	inhibition in vivo at 50 mg/kg (Rattus norvegicus [3]) [%]	inhibition in vivo at 25 mg/kg (Rattus norvegicus [4]) [%]	inhibition in vivo at 30 mg/kg (Rattus norvegicus [5]) [%]	UI (Rattus norvegicus [6])
0.69	Nc1nc(-c2ccc(Br)cc2)c2c(n1)-c1ccccc1C2=O	2.9	80	76.7	–	–
0.68	COc1cccc(-c2nc(N)nc3c2C(=O)c2ccccc2-3)c1	2.9	78	75.3	–	–
0.7	Nc1nc(-c2cccc([N+](=O)[O-])c2)c2c(n1)-c1ccccc1C2=O	2.9	79.3	76	–	–
